The assay has as its system MDA-MB-468 breast. The assay is described as follows: growth of human tumour cells (NCI), 48 h.

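Five compound concentrations were applied to cells in 96-well plates for 48 hours; endpoints were derived by simple linear interpolation of the resulting dose-response curve. GI50 = concentration required for 50% inhibition of growth. TGI: concentration producing complete growth inhibition.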

Take `Cn1cc(S(=O)(=O)N2CCC3=Cc4c(cnn4-c4ccc(F)cc4)C[C@]3(C(=O)c3cc(C(F)(F)F)ccn3)C2)cn1`: the GI50 was 68.8 µM and the TGI was more than 100 µM.

With `COc1cc(/C=C2\CCC/C(=C\c3ccc(OCC4CO4)c(OC)c3)C2=O)ccc1OCC1CO1` (configuration not stated), the GI50 is 1.63 µM and the TGI was found to be 4.85 µM.

Take `O=C(Nc1ccc(Cl)cc1)Nc1nccs1`: the GI50 was 0.398 µM and the TGI is 3.7 µM.

Regarding `O=C1c2ccccc2C(=O)c2c(NCCN=Cc3ccccc3O)cccc21`, the GI50 was 1.69 µM and the TGI came out at 4.42 µM.

In the case of `O=C(NC1CCCCC1)c1ccc(Nc2ncnc3c2cnn3-c2ccccc2)cc1`, the GI50 is 21.7 µM and the TGI is more than 100 µM.

Take `COc1ccc2c(c1)C(C)Cc1c(ncnc1-n1cnc3ccccc31)N2C` (configuration not stated): the GI50 was 0.293 µM and the TGI was found to be 10.6 µM.

With `O=C(NNc1cnccn1)c1nc2cc(F)ccc2n2cccc12`, the GI50 was 0.419 µM and the TGI worked out at 3.03 µM.

For the compound `CNC(C)[C@H]1CCC2C3CC=C4C(=O)[C@@H](NC(=O)C=C(C)C)CC[C@]4(C)C3CC[C@@]21C` (some centres not stated), the GI50 is 0.939 µM and the TGI was 2.91 µM.

As to `CC1(C)N=C(N)N=C(N)N1c1cccc(OCCOc2cccc([N+](=O)[O-])c2)c1`, the GI50 was 0.463 µM and the TGI was determined as 21.6 µM.

For the compound `O=C(N[C@@H](Cc1coc2ccccc12)B(O)O)[C@@H]1C[C@H]2CC[C@@H]1O2`, the GI50 was 3.38 µM and the TGI is 36 µM.

Turning to `CN(C)CCNc1nc2ccccc2c2c(=O)c3cc(F)ccc3sc12`, the GI50 was 1.65 µM and the TGI worked out at 3.22 µM.

As for `c1ccc2c(c1)c1ccccc1c1ccccc21`, the GI50 was more than 100 µM and the TGI is more than 100 µM.

As for `Cc1noc2c1-c1ccccc1C(c1ccc(Cl)cc1)=N[C@H]2CC(N)=O`, the GI50 was 1.5 µM and the TGI is more than 64.5 µM.

As to `C=CCn1c(SCC(=O)Nc2ccc(C(=O)/C=C/c3cc(OC)c(OC)c(OC)c3)cc2)nnc1-c1ccc(OC)cc1`, the GI50 is 0.654 µM and the TGI stood at 2.57 µM.

In the case of `Cn1cc(-c2csc(-c3cn(C)c4ccc(F)cc34)n2)c2cnccc21`, the GI50 was 1.86 µM and the TGI was found to be 3.53 µM.

For `O=C(CCN1CCOCC1)Nc1cccc(-n2cc(-c3ccncc3)c(-c3ccc(Cl)c(O)c3)n2)c1`, the GI50 was 1.25 µM and the TGI came out at 3.95 µM.

For `Nc1c(C(=O)Nc2ccccc2Cl)sc2nc3c(cc12)C(=O)CCC3`, the GI50 was 0.324 µM and the TGI came out at 5.42 µM.

As for `O=C1/C(=C/N2N=C(c3ccc4ccccc4c3)CC2c2ccccc2O)SC(=S)N1c1cccnc1` (configuration not stated), the GI50 was 1.06 µM and the TGI stood at 5.33 µM.

`NC(=O)CNc1ccc([As]=[As]c2ccc(NCC(N)=O)cc2)cc1` (configuration not stated): the GI50 is 1.13 µM and the TGI stood at 4.09 µM.

Take `COc1ccc(-c2cc(Nc3ccnc(N4CCOCC4)n3)on2)cc1`: the GI50 was 0.375 µM and the TGI was 2.49 µM.

With `CNCCn1c(=O)c2cc(OC)c(OC)cc2c2cnc3cc4c(cc3c21)OCO4`, the GI50 was less than 0.01 µM and the TGI is less than 0.0177 µM.

As to `O=C(N/N=C/c1ccc(O)cc1O)c1cccnc1`, the GI50 was 2.23 µM and the TGI amounted to 11.8 µM.

In the case of `COc1ccc(-c2ccc(NNC(=O)c3ccc(F)cc3)nn2)cc1OC`, the GI50 is 64.3 µM and the TGI was more than 100 µM.

As to `C=C(C)[C@@H]1CC[C@]2(C)[C@H](CC[C@@H]3[C@@H]([C@@](C)(O)CCC=C(C)C)CC[C@]32C)[C@@]1(C)CCC(=O)O`, the GI50 is 22.4 µM and the TGI amounted to 60.4 µM.

On to `Oc1ccc(N=Nc2nccs2)c(O)c1`, for which the GI50 is 4.76 µM and the TGI was more than 100 µM.

Regarding `NC(N)=N/N=C(\N=Nc1ccccc1)c1ccc(Cl)cc1`, the GI50 is 2.12 µM and the TGI was 5.41 µM.

As to `Oc1ccc(Oc2cnc3ccccc3n2)cc1`, the GI50 was 49.4 µM and the TGI was more than 100 µM.

In the case of `Cc1cc(NCCCCNc2ccnc3cc(Cl)ccc23)nc(Nc2ccc(C(=O)N3CCCCC3)cc2)n1`, the GI50 is 1.37 µM and the TGI was 3.09 µM.

Turning to `Cc1sc2c(c1C)C(c1ccc(Cl)cc1)=N[C@@H](CC(=O)Nc1ccc(OCCOCCOCCOCCNc3cccc4c3C(=O)N(C3CCC(=O)NC3=O)C4=O)cc1)c1nnc(C)n1-2` (some centres not stated), the GI50 was less than 0.0201 µM and the TGI is more than 100 µM.

On to `COc1ccc(-c2nn(-c3cccc(Cl)c3)cc2-c2nc(N)[nH]c(=O)c2C#N)cc1`, for which the GI50 is 2.12 µM and the TGI is 6.43 µM.

As for `NCCCOc1cc(Cl)ccc1NC(=O)c1cc2ccccc2cc1OCCCN`, the GI50 was 0.543 µM and the TGI came out at 1.89 µM.

Regarding `COc1ccc(-c2noc(N)c2-c2cc(OC)c3c(c2)OCO3)cc1`, the GI50 was 0.966 µM and the TGI stood at 7.47 µM.

As to `CCOC(=O)C1=C(N)Oc2c(sc3c(C)cccc23)C1c1ccc(F)cc1` (configuration not stated), the GI50 is 1.16 µM and the TGI stood at 8.8 µM.

Regarding `NCCCOc1cc2ccccc2cc1C(=O)NCCCOc1cc2ccccc2cc1C(=O)Nc1ccc(Cl)cc1O`, the GI50 is 0.238 µM and the TGI came out at 0.821 µM.

As for `COC(=O)[C@]12CC[C@@H](C)[C@H](C)[C@@H]1C1=CC[C@@H]3[C@@]4(C)C(C=O)=C[C@@](C)(COC(=O)c5ccco5)[C@@H]4[C@H](O)C[C@@]3(C)[C@]1(C)CC2`, the GI50 was 1.69 µM and the TGI amounted to 5.66 µM.

Consider `COc1cc(OC)c2sc(-c3ccc(-n4cncc4-c4cc(OC)c(OC)c(OC)c4)cc3)nc2c1`, for which the GI50 is 3.27 µM and the TGI is more than 100 µM.

These data come from PubChem BioAssay (NCI).
